One experiment relates to CCRF-CEM. Nature of the experiment: The compound was tested for its cytotoxicity against CCRF-CEM human leukemic cells using 72 hrs assay. In kind it is functional, cell-based.
For experiment [1], the target named is T1, Trifunctional purine biosynthetic protein adenosine-3 (Mus musculus, UniProt Q64737).
T1 sequence (Q64737 whole entry): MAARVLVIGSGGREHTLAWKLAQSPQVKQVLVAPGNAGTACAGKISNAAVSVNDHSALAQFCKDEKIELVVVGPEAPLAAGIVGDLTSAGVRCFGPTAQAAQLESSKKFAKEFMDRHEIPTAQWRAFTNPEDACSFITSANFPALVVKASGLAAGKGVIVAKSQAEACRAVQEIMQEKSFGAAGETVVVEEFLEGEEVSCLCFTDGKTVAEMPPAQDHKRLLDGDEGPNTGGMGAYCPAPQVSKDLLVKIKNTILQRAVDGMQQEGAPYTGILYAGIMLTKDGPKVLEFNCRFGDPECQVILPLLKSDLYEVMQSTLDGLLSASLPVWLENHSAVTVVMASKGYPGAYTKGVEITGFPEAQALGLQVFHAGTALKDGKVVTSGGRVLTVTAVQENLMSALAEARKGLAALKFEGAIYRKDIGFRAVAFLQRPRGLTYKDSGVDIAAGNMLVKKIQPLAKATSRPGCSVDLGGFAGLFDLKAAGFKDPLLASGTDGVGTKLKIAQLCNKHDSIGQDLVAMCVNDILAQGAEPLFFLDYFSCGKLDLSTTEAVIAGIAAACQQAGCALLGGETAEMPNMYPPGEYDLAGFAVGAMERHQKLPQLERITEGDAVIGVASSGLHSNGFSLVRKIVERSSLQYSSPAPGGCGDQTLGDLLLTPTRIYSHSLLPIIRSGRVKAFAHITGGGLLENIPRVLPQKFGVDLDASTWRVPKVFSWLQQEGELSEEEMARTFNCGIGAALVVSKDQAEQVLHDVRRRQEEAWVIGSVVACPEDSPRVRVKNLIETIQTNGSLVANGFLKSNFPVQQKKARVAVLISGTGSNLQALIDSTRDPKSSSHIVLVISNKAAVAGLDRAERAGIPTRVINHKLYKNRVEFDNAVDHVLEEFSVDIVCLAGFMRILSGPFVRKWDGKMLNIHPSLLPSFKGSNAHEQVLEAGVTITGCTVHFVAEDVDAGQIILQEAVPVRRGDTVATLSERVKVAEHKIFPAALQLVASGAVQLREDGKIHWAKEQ
In words: Inhibitory activity against glycinamide ribonucleotide formyltransferase (GARFT) from L1210 murine leukemic cells. Type of experiment: cell-based.

Molecules are shown by their SMILES. pKi: −log10 of the molar value. ≈ marks a conversion by molar mass, not a printed value.

On to `Nc1nc(O)c2c(n1)NCC(CCCc1ccc(C(=O)N[C@H](CCC(=O)O)C(=O)O)cc1)C2` (stereo not given in full), for which the IC50 (usually the concentration at which inhibition is half-maximal) with CCRF-CEM was 8 ng/mL (≈ 0.0175 µM).
Turning to `Nc1nc(O)c2c(n1)NCC(Cc1ccc(C(=O)N[C@H](CCC(=O)O)C(=O)O)cc1)C2` (stereo not given in full), the pKi (usually the negative decadic logarithm of the Ki, by convention in mol/L) in experiment [1] is 12.20. Besides, in the experiment with CCRF-CEM, the half-inhibitory concentration (IC50) worked out at 26 ng/mL (≈ 0.0605 µM).
In experiment [1], `Nc1nc2c(c(=O)[nH]1)C[C@@H](CCc1ccc(C(=O)N[C@@H](CCC(=O)O)C(=O)O)cc1)CN2` [LOMETREXOL] had a pKi of 6.92. For the same compound, the midpoint of inhibition in the experiment with CCRF-CEM, the IC50, lay at 7 ng/mL (≈ 0.0158 µM).

(Values after ChEMBL document CHEMBL1126409, “Synthesis and biological activity of nor- and homo-5,10-dideazatetrahydrofolic acid” (Bioorg Med Chem Lett, 1992).)
